These results are taken from ChEMBL document CHEMBL1201862, “PubChem BioAssay data set” (2004).

Some test systems named below: 786-0; HCT-15; SK-MEL-28; MDA-N; NCI/ADR-RES; MDA-MB-231; A549; EKVX; NCI-H522; UO-31; T47D; MCF7; NCI-H460; PC-3; SR; COLO 205; SF-539; CCRF-CEM; BT-549.
Assay in all cases: growth of human tumour cells (NCI), 48 h

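The compound was tested at five concentrations on cells cultured in 96-well plates, with a 48-hour exposure period. GI50 marks 50% less growth.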 Calls of active or inactive are those of the source. Rule as the data show it: active = GI50 up to about 1.1 µM and inactive = higher.

Consider `CCOC(=O)c1cccc(/N=N/Nc2cccc(C(=O)OCC)c2)c1`, for which the GI50 in the assay with 786-0 was 17.9 µM (inactive); with HCT-15, more than 100 µM; in the assay with SK-MEL-28 it was > 100 µM (inactive); with MDA-N, 5.66 µM (inactive); with NCI/ADR-RES, 56.9 µM (inactive); in the assay on MDA-MB-231 it was 17.8 µM (inactive). For the same compound, the GI50 in the assay with A549 was 74.5 µM (inactive); in the assay on EKVX, 57.8 µM (inactive); in the assay on NCI-H522 it was 23.9 µM (inactive); in the assay on UO-31 it was 17.7 µM (inactive); in the assay with T47D, > 100 µM (inactive); in the assay with MCF7, 61.7 µM (inactive). In addition, the GI50 in the assay on NCI-H460 is 64 µM (inactive); with PC-3 it was 34.4 µM (inactive); in the assay on SR, 1.09 µM (active); with COLO 205, > 100 µM (inactive); in the assay with SF-539 it was 14.2 µM (inactive); with CCRF-CEM, > 100 µM (inactive). Moreover, in the assay on BT-549, the GI50 is > 100 µM (inactive).
Regarding `N=C(N)N/N=C(\c1ccc(F)cc1)c1ccc(C(F)(F)F)cc1`, the GI50 was 0.294 µM (active) in the assay on 786-0; 0.294 µM in the assay on HCT-15; 0.94 µM (active) in the assay with SK-MEL-28; 0.0748 µM (active) in the assay on MDA-N; 0.344 µM (active) in the assay with NCI/ADR-RES; 0.33 µM (active) in the assay on MDA-MB-231. Moreover, the GI50 in the assay on A549 is 0.412 µM (active); with EKVX, 0.505 µM (active); with NCI-H522 it was 0.135 µM (active); in the assay with UO-31, 0.53 µM (active); in the assay with T47D, 2.08 µM (inactive); with MCF7, 0.242 µM (active). Moreover, the GI50 is 0.332 µM (active) in the assay with NCI-H460; 0.357 µM (active) in the assay on PC-3; 0.284 µM (active) with SR; 0.294 µM (active) in the assay with COLO 205; 0.27 µM (active) with SF-539; 0.329 µM (active) in the assay with CCRF-CEM. Also, the GI50 in the assay with BT-549 is 0.593 µM (active).
As for `COc1cc2c(cc1OC)C(=O)/C(=C/c1ccccc1)C2`, the GI50 in the assay with 786-0 was 90.6 µM (inactive); in the assay on HCT-15, more than 82 µM; with SK-MEL-28, > 100 µM (inactive); in the assay with MDA-N, > 93.8 µM (inactive); in the assay on NCI/ADR-RES, > 66.2 µM (inactive); with MDA-MB-231 it was > 100 µM (inactive). Moreover, the GI50 in the assay with A549 was > 100 µM (inactive); with EKVX it was > 100 µM (inactive); with NCI-H522 it was 47 µM (inactive); in the assay with UO-31 it was > 83.8 µM (inactive); in the assay on T47D it was 63.5 µM (inactive); in the assay on MCF7, > 71.3 µM (inactive). Further, the GI50 in the assay on NCI-H460 was 53.7 µM (inactive); in the assay on PC-3 it was > 58.9 µM (inactive); in the assay on SR, 29.4 µM (inactive); in the assay on COLO 205, > 100 µM (inactive); with SF-539 it was 43.6 µM (inactive); with CCRF-CEM, 27.5 µM (inactive). For the same compound, in the assay with BT-549, the GI50 was > 100 µM (inactive).
Take `N#Cc1c(N)c2c(c(-c3ccccc3)c1-c1ccccc1)C(=O)N(NC(=O)c1ccccc1)C2=O`: the GI50 is 76.9 µM (inactive) in the assay on 786-0; more than 100 µM in the assay with HCT-15; > 100 µM (inactive) with SK-MEL-28; 72.6 µM (inactive) in the assay on MDA-N; 89.5 µM (inactive) with NCI/ADR-RES; > 100 µM (inactive) in the assay on MDA-MB-231. For the same compound, the GI50 with A549 was > 100 µM (inactive); in the assay with EKVX it was > 100 µM (inactive); in the assay with NCI-H522, 81.7 µM (inactive); in the assay on UO-31 it was 41.9 µM (inactive); in the assay on T47D, 32.1 µM (inactive); in the assay with MCF7, 61.2 µM (inactive). Moreover, the GI50 was 55.1 µM (inactive) in the assay with NCI-H460; 65.2 µM (inactive) in the assay with PC-3; 44.5 µM (inactive) in the assay with SR; > 100 µM (inactive) in the assay on COLO 205; 64.4 µM (inactive) in the assay on SF-539; 42.3 µM (inactive) in the assay with CCRF-CEM. Further, the GI50 in the assay on BT-549 was > 100 µM (inactive).
For the compound `COC(=O)/C=C/c1ccc2c(c1)CC1(C2)Cc2cc3c(cc2C1=O)CCC3` (centres undefined), the GI50 in the assay on 786-0 was 27 µM (inactive); with HCT-15, more than 100 µM; with SK-MEL-28, > 100 µM (inactive); in the assay on MDA-N, > 100 µM (inactive); in the assay on NCI/ADR-RES, 42.5 µM (inactive); in the assay with MDA-MB-231, 39 µM (inactive). The GI50 in the assay with A549 was 40.3 µM (inactive); with EKVX, 55.6 µM (inactive); with NCI-H522, 31.1 µM (inactive); in the assay on UO-31, 50.8 µM (inactive); in the assay with T47D it was 11.1 µM (inactive); in the assay with MCF7, > 100 µM (inactive). The GI50 was 80.9 µM (inactive) with NCI-H460; 88.9 µM (inactive) with PC-3; 44.1 µM (inactive) with SR; > 100 µM (inactive) with COLO 205; 31 µM (inactive) in the assay with SF-539; > 100 µM (inactive) in the assay on CCRF-CEM. For the same compound, the GI50 in the assay with BT-549 was > 100 µM (inactive).
Consider `OB(O)c1ccccc1C#Cc1ccccc1B(O)O`, for which the GI50 is 28.4 µM (inactive) with 786-0; 20.9 µM in the assay on HCT-15; 35.6 µM (inactive) in the assay on SK-MEL-28; 21.2 µM (inactive) in the assay with MDA-N; 25.5 µM (inactive) in the assay with NCI/ADR-RES; 20.8 µM (inactive) in the assay with MDA-MB-231. Moreover, the GI50 with A549 was 18.5 µM (inactive); in the assay with EKVX, 16.9 µM (inactive); in the assay with NCI-H522 it was 14.6 µM (inactive); in the assay on UO-31, 20.3 µM (inactive); in the assay with T47D, 2.98 µM (inactive); with MCF7, 3.13 µM (inactive). For the same compound, the GI50 with NCI-H460 is 14.4 µM (inactive); with PC-3 it was 22.1 µM (inactive); with SR it was 19.5 µM (inactive); in the assay with COLO 205, 16.2 µM (inactive); with SF-539, 18.4 µM (inactive); with CCRF-CEM it was 20.1 µM (inactive). Moreover, in the assay with BT-549, the GI50 was 12.2 µM (inactive).
Turning to `Clc1ccc(-c2nc3cc(Cl)ccc3[nH]2)cc1`, the GI50 was 35.2 µM (inactive) with 786-0; 30.3 µM in the assay with HCT-15; 47.9 µM (inactive) in the assay on SK-MEL-28; 29.1 µM (inactive) with MDA-N; 19.9 µM (inactive) in the assay on NCI/ADR-RES; > 100 µM (inactive) in the assay on MDA-MB-231. The GI50 with A549 is 29.3 µM (inactive); with EKVX it was 34.9 µM (inactive); in the assay with NCI-H522, 19.6 µM (inactive); in the assay on UO-31, 26.2 µM (inactive); in the assay with T47D, 26.5 µM (inactive); with MCF7, 35.6 µM (inactive). The GI50 in the assay on NCI-H460 was 31.3 µM (inactive); in the assay with PC-3 it was 27.2 µM (inactive); in the assay with SR, 32.7 µM (inactive); in the assay with COLO 205 it was 19.6 µM (inactive); in the assay with SF-539, 22.6 µM (inactive); with CCRF-CEM, 54 µM (inactive). Besides, in the assay on BT-549, the GI50 is 32.2 µM (inactive).
With `O=C1/C(=C/c2ccccc2)N=C(c2ccccc2)N1n1c(-c2ccccc2)nc2ccccc2c1=O`, the GI50 was > 100 µM (inactive) with 786-0; 72.4 µM in the assay on HCT-15; 74.3 µM (inactive) in the assay on SK-MEL-28; 54.8 µM (inactive) in the assay with MDA-N; 63.8 µM (inactive) with NCI/ADR-RES; > 100 µM (inactive) in the assay with MDA-MB-231. Also, the GI50 is 47.6 µM (inactive) with A549; 48.6 µM (inactive) in the assay on EKVX; 46.6 µM (inactive) in the assay with NCI-H522; 83.2 µM (inactive) with UO-31; > 100 µM (inactive) with T47D; 34 µM (inactive) in the assay on MCF7. Moreover, the GI50 is 58.9 µM (inactive) with NCI-H460; 57.7 µM (inactive) in the assay with PC-3; 31 µM (inactive) in the assay with SR; > 100 µM (inactive) in the assay on COLO 205; 83 µM (inactive) in the assay with SF-539; 32.8 µM (inactive) with CCRF-CEM. The GI50 in the assay with BT-549 is 31.6 µM (inactive).
For `COC(=O)C1=CC2CCCC1(O)C(C(C)=O)C2` (centres undefined), the GI50 with 786-0 is 20.2 µM (inactive); in the assay with HCT-15, more than 66.5 µM; with SK-MEL-28, > 100 µM (inactive); with MDA-N it was 97.9 µM (inactive); in the assay on NCI/ADR-RES, > 63.2 µM (inactive); in the assay on MDA-MB-231, 46.6 µM (inactive). In addition, the GI50 in the assay on A549 is 51.9 µM (inactive); in the assay on EKVX it was 52.7 µM (inactive); with NCI-H522 it was 15.5 µM (inactive); in the assay with UO-31, 17.3 µM (inactive); with T47D, 27.4 µM (inactive); in the assay with MCF7 it was > 79.6 µM (inactive). The GI50 with NCI-H460 was > 85.1 µM (inactive); with PC-3, 61.2 µM (inactive); with SR, 31.3 µM (inactive); in the assay on COLO 205, 39.8 µM (inactive); in the assay on SF-539, 11.6 µM (inactive); in the assay with CCRF-CEM, 21.1 µM (inactive). For the same compound, in the assay on BT-549, the GI50 was > 95.7 µM (inactive).
Consider `CCOC(=O)c1nc2ccccc2nc1NCc1ccc(OC)c(OC)c1`, for which the GI50 was > 100 µM (inactive) in the assay on 786-0; more than 100 µM with HCT-15; > 100 µM (inactive) in the assay on SK-MEL-28; > 100 µM (inactive) with MDA-N; > 100 µM (inactive) in the assay on NCI/ADR-RES; > 100 µM (inactive) with MDA-MB-231. Moreover, the GI50 with A549, in the assay with EKVX, in the assay with NCI-H522, in the assay with UO-31, in the assay with T47D and in the assay on MCF7 was > 100 µM (inactive) each time. Moreover, the GI50 in the assay with NCI-H460, with PC-3, with SR, in the assay on COLO 205, with SF-539 and with CCRF-CEM was > 100 µM (inactive) each time. Further, in the assay on BT-549, the GI50 is > 100 µM (inactive).
For `CCO[C@@]12CCC3CC4CC[C@@](OCC)(O1)C4C32` (some centres undefined), the GI50 in the assay on 786-0 was > 100 µM (inactive); in the assay on HCT-15, more than 100 µM; in the assay with SK-MEL-28 it was > 100 µM (inactive); with MDA-N, > 100 µM (inactive); in the assay with NCI/ADR-RES it was > 100 µM (inactive); in the assay on MDA-MB-231 it was > 100 µM (inactive). Also, the GI50 in the assay with A549, with EKVX, in the assay with NCI-H522, in the assay with UO-31, with T47D and in the assay on MCF7 was > 100 µM (inactive) each time. Also, the GI50 in the assay with NCI-H460, with PC-3, with SR, with COLO 205, in the assay with SF-539 and in the assay with CCRF-CEM was > 100 µM (inactive) each time. In the assay on BT-549, the GI50 was > 100 µM (inactive).
